Structures can show the parent of a compound that is named as a salt.
Columns and labels:
human H4 receptor = target: T1, human H4 receptor (Homo sapiens, UniProt Q9H3N8); experiment: H4 Antagonist Functional cAMP Gi Assay; assay type: cell-based; conditions: H4 antagonist activity; for Kb: read-out: Human H4 CAMP fpKb (converted)
T1 construct: expressed in transfected cells; host or cells: HEKf cells transduced with baculovirus
Method: H4 Antagonist Functional cAMP Gi Assay
HEKf cells were infected overnight using baculovirus expressing the human H4 receptor, then centrifuged at 1,200 rpm for 5 min, frozen in cell freezing medium (Sigma) and stored at −150° C. On the day of assay, the cells were thawed and resuspended in HBSS with 500 nM IBMX to achieve a density of 1,500 cells/well. H4 ligands were prepared in DMSO and stamped by LabCyte ECHO acoustic dispensing at 25 nL in low volume plates. 10 μL/well cells were plated in the presence of 1 μM forskolin, subjected to centrifugation at 1,200 rpm for 1 min and incubated for 30 min prior to addition of Cisbio cAMP detection reagents to a total volume 20 μL/well. For the antagonist assay, cells were pre-incubated with H4 antagonist ligands for 30 min prior to addition of EC80 concentration of histamine and a further 30 min incubation. Following detection reagent addition and shaking at room temperature for 60 min, cAMP accumulation was measured using HTRF on a PheraStar plate reader. EC50 values were generated using a 4-parameter logistical fit equation to quantify agonist potencies. Functional antagonist affinity values were generated using the Cheng-Prusoff equation to calculate a pKb value using the antagonist assay data.

hERG = hERG (Homo sapiens, UniProt Q12809); experiment: hERG Assay (QPatch automated patch clamp; single-concentration assay at 30 μM and pIC50 assay); conditions: for inhibition at 30 µM: human, CHO cells stably expressing hERG
hERG, sequence (Q12809 whole entry): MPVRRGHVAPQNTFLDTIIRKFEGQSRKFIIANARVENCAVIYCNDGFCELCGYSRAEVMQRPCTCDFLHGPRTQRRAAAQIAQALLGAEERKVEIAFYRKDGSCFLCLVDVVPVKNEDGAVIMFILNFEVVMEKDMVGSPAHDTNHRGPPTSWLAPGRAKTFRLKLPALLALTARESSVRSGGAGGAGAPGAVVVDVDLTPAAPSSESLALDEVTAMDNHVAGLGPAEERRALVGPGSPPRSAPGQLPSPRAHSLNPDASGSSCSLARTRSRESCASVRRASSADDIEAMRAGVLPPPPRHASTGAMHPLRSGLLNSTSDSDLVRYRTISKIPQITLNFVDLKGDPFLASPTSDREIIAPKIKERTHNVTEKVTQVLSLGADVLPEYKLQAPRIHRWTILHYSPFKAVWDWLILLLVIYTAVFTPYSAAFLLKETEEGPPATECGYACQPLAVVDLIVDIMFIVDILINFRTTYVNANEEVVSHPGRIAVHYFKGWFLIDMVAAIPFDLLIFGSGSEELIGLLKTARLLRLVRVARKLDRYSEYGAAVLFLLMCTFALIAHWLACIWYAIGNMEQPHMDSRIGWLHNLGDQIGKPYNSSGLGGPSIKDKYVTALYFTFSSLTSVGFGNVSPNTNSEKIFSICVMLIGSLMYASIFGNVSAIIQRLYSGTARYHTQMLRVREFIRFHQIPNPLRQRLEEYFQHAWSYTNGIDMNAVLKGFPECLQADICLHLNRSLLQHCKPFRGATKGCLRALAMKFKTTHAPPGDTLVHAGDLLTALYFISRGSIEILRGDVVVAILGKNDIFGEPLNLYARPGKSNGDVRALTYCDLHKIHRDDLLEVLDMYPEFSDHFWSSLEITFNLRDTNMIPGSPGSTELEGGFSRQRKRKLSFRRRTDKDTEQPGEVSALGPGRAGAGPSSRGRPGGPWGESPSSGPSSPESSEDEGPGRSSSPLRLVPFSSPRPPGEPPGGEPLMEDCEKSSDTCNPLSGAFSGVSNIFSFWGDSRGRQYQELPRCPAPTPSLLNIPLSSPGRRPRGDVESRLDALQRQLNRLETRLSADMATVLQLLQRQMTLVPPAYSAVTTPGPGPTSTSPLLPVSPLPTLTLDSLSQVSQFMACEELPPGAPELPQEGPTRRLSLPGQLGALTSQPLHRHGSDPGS

T1 sequence (Q9H3N8 whole entry): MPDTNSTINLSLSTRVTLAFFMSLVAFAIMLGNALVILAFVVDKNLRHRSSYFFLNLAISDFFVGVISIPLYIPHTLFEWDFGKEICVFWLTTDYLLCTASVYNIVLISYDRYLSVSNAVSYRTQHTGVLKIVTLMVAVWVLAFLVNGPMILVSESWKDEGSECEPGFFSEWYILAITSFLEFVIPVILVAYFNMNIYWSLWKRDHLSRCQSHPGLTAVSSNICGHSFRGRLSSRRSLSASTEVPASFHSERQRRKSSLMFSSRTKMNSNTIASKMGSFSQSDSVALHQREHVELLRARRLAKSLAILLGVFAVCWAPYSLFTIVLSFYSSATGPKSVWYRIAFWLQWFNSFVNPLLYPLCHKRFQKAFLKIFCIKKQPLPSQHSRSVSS

CN[C@@H]1CCN(c2cc(-c3cnn(CC#N)c3)nc(N)n2)C1 [Example 8-13]
Kb (human H4 receptor): 200 nM

CN[C@@H]1CCN(c2cc(-c3cc(C(F)F)n[nH]3)nc(N)n2)C1 [Example 3-3, (R)-4-(3-(difluoromethyl)-1H-pyrazol-5-yl)-6-(3-(methylamino)pyrrolidin-1-yl)pyrimidin-2-amine]
Kb (human H4 receptor): 50.1 nM

CN[C@@H]1CCN(c2cc(-c3[nH]nc(C)c3Cl)nc(N)n2)C1 [Example 7-2]
inhibition at 30 µM (hERG): 39% | Kb (human H4 receptor): 0.251 nM

CN[C@@H]1CCN(c2cc(-c3[nH]nc(C(F)F)c3C)nc(N)n2)C1 [Example 17-10, ditrifluoroacetate]
inhibition at 30 µM (hERG): 57% | Kb (human H4 receptor): 0.251 nM

CCc1cc(-c2cc(N3CC[C@@H](NC)C3)nc(N)n2)[nH]n1 [Example 15-1]
inhibition at 30 µM (hERG): 68% | Kb (human H4 receptor): 3.16 nM

CCc1cn[nH]c1-c1cc(N2CC[C@@H](NC)C2)nc(N)n1 [Example 4-2, (R)-4-(4-ethyl-1H-pyrazol-5-yl)-6-(3-(methylamino)pyrrolidin-1-yl)pyrimidin-2-amine]
inhibition at 30 µM (hERG): 25% | Kb (human H4 receptor): 10 nM

CN[C@@H]1CCN(c2cc(-c3nn(C(F)F)cc3C)nc(N)n2)C1 [Example 6-2]
inhibition at 30 µM (hERG): 94% | Kb (human H4 receptor): 39.8 nM

CCn1cc(-c2cc(N3CC[C@@H](N)C3)nc(N)n2)cn1 [Example 8-17, dihydrochloride]
inhibition at 30 µM (hERG): 10% | Kb (human H4 receptor): 50.1 nM

CN[C@@H]1CCN(c2cc(-c3cnn(C4CCC4)c3)nc(N)n2)C1 [Example 8-5]
inhibition at 30 µM (hERG): 77% | Kb (human H4 receptor): 251 nM

CN[C@@H]1CCN(c2cc(-c3cn[nH]c3)nc(N)n2)C1 [Example 8-1]
IC50 (hERG): ≥ 100000 nM | Kb (human H4 receptor): 100 nM

CN[C@@H]1CCN(c2cc(-c3nn(C)cc3C)nc(N)n2)C1 [Example 6-1]
inhibition at 30 µM (hERG): 12% | Kb (human H4 receptor): 20 nM

CN[C@@H]1CCN(c2cc(-c3cn[nH]c3C3CC3)nc(N)n2)C1.O=C(O)C(F)(F)F.O=C(O)C(F)(F)F [Example 9-4]
hERG % inhibition at 30 μM (hERG; single concentration 30 μM, QPatch): 17% | Human H4 CAMP fpKb (human H4 receptor): 7.6

CN[C@@H]1CCN(c2cc(-c3cc(C)n[nH]3)nc(N)n2)C1 [Example 3-1, (R)-4-(3-methyl-1H-pyrazol-5-yl)-6-(3-(methylamino)pyrrolidin-1-yl)pyrimidin-2-amine]
inhibition at 30 µM (hERG): < 1% | Kb (human H4 receptor): 7.94 nM

CCn1cc(-c2cc(N3CC[C@@H](NC)C3)nc(N)n2)cn1 [Example 8-3, dihydrochloride]
inhibition at 30 µM (hERG): 12% | Kb (human H4 receptor): 39.8 nM

CN[C@@H]1CCN(c2cc(-c3cc(C)n(C(F)F)n3)nc(N)n2)C1 [Example 5-2]
inhibition at 30 µM (hERG): 71% | Kb (human H4 receptor): 398 nM

Nc1nc(-c2cc(C(F)(F)F)n[nH]2)cc(N2CC[C@@H](N)C2)n1 [Example 3-5]
inhibition at 30 µM (hERG): 19% | Kb (human H4 receptor): 100 nM

CN[C@@H]1CCN(c2cc(-c3cn[nH]c3C(F)F)nc(N)n2)C1 [Example 9-5]
Kb (human H4 receptor): 39.8 nM

CN[C@@H]1CCN(c2cc(-c3cc(C4CC4)n[nH]3)nc(N)n2)C1 [Example 3-2, dihydrochloride]
inhibition at 30 µM (hERG): 39% | Kb (human H4 receptor): 100 nM

CN[C@@H]1CCN(c2cc(-c3[nH]nc4c3CCC4)nc(N)n2)C1 [7.4]
inhibition at 30 µM (hERG): 16% | Kb (human H4 receptor): 6.31 nM

CN[C@@H]1CCN(c2cc(-c3cnn(CC(F)(F)F)c3)nc(N)n2)C1 [Example 8-8, dihydrochloride]
inhibition at 30 µM (hERG): 44% | Kb (human H4 receptor): 398 nM

CN[C@@H]1CCN(c2cc(-c3cnn(C(F)F)c3)nc(N)n2)C1 [Example 8-6]
IC50 (hERG): 6310 nM | Kb (human H4 receptor): 20 nM

CN[C@@H]1CCN(c2cc(-c3cnn4c3CCC4)nc(N)n2)C1 [Example 12-4, dihydrochloride]
inhibition at 30 µM (hERG): 1% | Kb (human H4 receptor): 158 nM

Nc1nc(-c2[nH]ncc2Cl)cc(N2CC[C@@H](N)C2)n1 [Example 16-11]
inhibition at 30 µM (hERG): 27% | Kb (human H4 receptor): 7.94 nM

CN[C@@H]1CCN(c2cc(-c3[nH]ncc3OC)nc(N)n2)C1 [Example 4-4, (R)-4-(4-methoxy-1H-pyrazol-5-yl)-6-(3-(methylamino)pyrrolidin-1-yl)pyrimidin-2-amine]
inhibition at 30 µM (hERG): 14% | Kb (human H4 receptor): 79.4 nM

CN[C@@H]1CCN(c2cc(-c3ccn(C)n3)nc(N)n2)C1 [Example 2-1, (R)-4-(1-methyl-1H-pyrazol-3-yl)-6-(3-(methylamino)pyrrolidin-1-yl)pyrimidin-2-amine]
IC50 (hERG): ≥ 100000 nM | Kb (human H4 receptor): 39.8 nM

CN[C@@H]1CCN(c2cc(-c3cnn(C)c3C#N)nc(N)n2)C1 [Example 12-2]
inhibition at 30 µM (hERG): 14% | Kb (human H4 receptor): 251 nM

CN[C@@H]1CCN(c2cc(-c3[nH]nc(C(F)(F)F)c3C)nc(N)n2)C1 [Example 17-12]
inhibition at 30 µM (hERG): 60% | Kb (human H4 receptor): 1.58 nM

Nc1nc(-c2cnn(C(F)(F)F)c2)cc(N2CC[C@@H](N)C2)n1 [Example 8-15, dihydrochloride]
IC50 (hERG): ≥ 100000 nM | inhibition at 30 µM (hERG): 44% | Kb (human H4 receptor): 2.51 nM

CCc1n[nH]c(-c2cc(N3CC[C@@H](N)C3)nc(N)n2)c1C [Example 7-8]
Kb (human H4 receptor): 126 nM

CN[C@@H]1CCN(c2cc(-c3ccn(C(F)F)n3)nc(N)n2)C1 [Example 2-2, (R)-4-(1-(difluoromethyl)-1H-pyrazol-3-yl)-6-(3-(methylamino)pyrrolidin-1-yl)pyrimidin-2-amine dihydrochloride]
inhibition at 30 µM (hERG): 99% | Kb (human H4 receptor): 50.1 nM

CN[C@@H]1CCN(c2cc(-c3cnn(CCO)c3)nc(N)n2)C1 [Example 8-9]
Kb (human H4 receptor): 631 nM

CN[C@@H]1CCN(c2cc(-c3cn(C)nc3C3CC3)nc(N)n2)C1 [Example 11-3, dihydrochloride]
inhibition at 30 µM (hERG): 34% | Kb (human H4 receptor): 501 nM

CN[C@H]1CCN(c2cc(-c3[nH]ncc3C)nc(N)n2)C1 [Example 16-1, ditrifluoroacetate]
inhibition at 30 µM (hERG): 32% | Kb (human H4 receptor): 31.6 nM

CN[C@@H]1CCN(c2cc(-c3cn(C)nc3C(F)(F)F)nc(N)n2)C1 [Example 11-4, dihydrochloride]
inhibition at 30 µM (hERG): 46% | Kb (human H4 receptor): 316 nM

CN[C@@H]1CCN(c2cc(-c3ccn[nH]3)nc(N)n2)C1 [Example 1-1, (R)-4-(3-(methylamino)pyrrolidin-1-yl)-6-(1H-pyrazol-5-yl)pyrimidin-2-amine]
IC50 (hERG): ≥ 100000 nM | Kb (human H4 receptor): 50.1 nM

CN[C@@H]1CCN(c2cc(-c3[nH]nc(Cl)c3C)nc(N)n2)C1 [Example 17-14, dihydrochloride]
inhibition at 30 µM (hERG): 44% | Kb (human H4 receptor): 0.0631 nM

CNC1(C)CN(c2cc(-c3[nH]ncc3C)nc(N)n2)C1 [Example 16-5, ditrifluoroacetate]
Kb (human H4 receptor): 20 nM

CN[C@@H]1CCN(c2cc(-c3cc(C(F)(F)F)n[nH]3)nc(N)n2)C1 [Example 3-4, (R)-4-(3-(methylamino)pyrrolidin-1-yl)-6-(3-(trifluoromethyl)-1H-pyrazol-5-yl)pyrimidin-2-amine ditrifluoroacetate salt]
inhibition at 30 µM (hERG): 45% | Kb (human H4 receptor): 63.1 nM

CN[C@@H]1CCN(c2cc(-c3cc(C)n(C)n3)nc(N)n2)C1 [Example 5-1, diformate]
Kb (human H4 receptor): 398 nM

CN[C@@H]1CCN(c2cc(-c3[nH]ncc3F)nc(N)n2)C1 [Example 16-10, ditrifluoroacetate]
inhibition at 30 µM (hERG): 21% | Kb (human H4 receptor): 12.6 nM

Cc1n[nH]c(-c2cc(N3CC[C@@H](N)C3)nc(N)n2)c1C [Example 7-6]
Kb (human H4 receptor): 398 nM

Nc1nc(-c2cnn(CC(F)(F)F)c2)cc(N2CC[C@@H](N)C2)n1 [Example 8-18, dihydrochloride]
Kb (human H4 receptor): 501 nM

CCOC(=O)N1CCCC(n2cc(-c3cc(N4CC[C@@H](NC)C4)nc(N)n3)cn2)C1 (stereo partly shown) [Example 8-14]
Kb (human H4 receptor): 794 nM

Cc1n[nH]c(-c2cc(N3CC[C@@H](N)C3)nc(N)n2)c1Cl [Example 7-7]
inhibition at 30 µM (hERG): 30% | Kb (human H4 receptor): 2 nM

CN[C@@H]1CCN(c2cc(-c3cnn(C4COC4)c3)nc(N)n2)C1 [Example 8-11]
Kb (human H4 receptor): 501 nM

Cc1cn[nH]c1-c1cc(N2CC(N)C2)nc(N)n1 [Example 16-4, ditrifluoroacetate]
Kb (human H4 receptor): 398 nM

CN[C@@H]1CCN(c2cc(-c3[nH]nc(Cl)c3Cl)nc(N)n2)C1 [Example 17-15]
inhibition at 30 µM (hERG): 75% | Kb (human H4 receptor): 0.0501 nM

CCc1[nH]ncc1-c1cc(N2CC[C@@H](NC)C2)nc(N)n1 [Example 9-2]
inhibition at 30 µM (hERG): 12% | Kb (human H4 receptor): 12.6 nM

CN[C@@H]1CCN(c2cc(-c3ccnn3C)nc(N)n2)C1 [Example 1-2, (R)-4-(1-methyl-1H-pyrazol-5-yl)-6-(3-(methylamino)pyrrolidin-1-yl)pyrimidin-2-amine dihydrochloride]
Kb (human H4 receptor): 794 nM

CN[C@@H]1CCN(c2cc(-c3cn(C)nc3C#N)nc(N)n2)C1 [Example 11-5]
Kb (human H4 receptor): 794 nM

CNC1(C)CCN(c2cc(-c3[nH]ncc3C)nc(N)n2)C1 (stereo not shown) [Example 16-2, ditrifluoroacetate]
inhibition at 30 µM (hERG): 9% | Kb (human H4 receptor): 50.1 nM

CNC1CN(c2cc(-c3[nH]ncc3C)nc(N)n2)C1 [Example 16-3, ditrifluoroacetate]
Kb (human H4 receptor): 7.94 nM

CN[C@@H]1CCN(c2cc(-c3[nH]nc(C)c3C(F)(F)F)nc(N)n2)C1 [Example 17-2]
inhibition at 30 µM (hERG): 39% | Kb (human H4 receptor): 5.01 nM

CN[C@@H]1CCN(c2cc(-c3cnn(CCC#N)c3)nc(N)n2)C1 [Example 8-12]
Kb (human H4 receptor): 794 nM

Cc1cn[nH]c1-c1cc(N2CC3CCNC3C2)nc(N)n1 (stereo not shown) [Example 16-6]
Kb (human H4 receptor): 631 nM

Reference: patent US12234227B2, “Pyrazole derivatives as H4 antagonist compounds” (NXERA PHARMA UK LIMITED, priority 2018, dated 2025)
